Holding throughout (assay): relative viability (nuclei count vs DMSO), 5 days (fraction); higher = more cells survive
Compound in test [1]: Nc1ccccc1NC(=O)c1ccc(CNC(=O)OCc2cccnc2)cc1 [Entinostat] + O=C(CCCCCCC(=O)Nc1ccccc1)NO [Vorinostat] (partner 1 µM)
Summed up:
(§1)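 Five library-drug doses in √10 steps were combined with a fixed anchor-drug dose, or a single drug was given alone, by pin tool to lung cancer cell lines in 1536-well plates the day after seeding. Nuclei were stained and counted after 5 days. Relative viability is the nuclei count in treated wells over that in vehicle wells, taken as the median of duplicate plates.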

Compound in test [2]: Nc1ccccc1NC(=O)c1ccc(CNC(=O)OCc2cccnc2)cc1 [Entinostat] + CC1(C)CCC(c2ccc(Cl)cc2)=C(CN2CCN(c3ccc(C(=O)NS(=O)(=O)c4ccc(N[C@H](CCN5CCOCC5)CSc5ccccc5)c(S(=O)(=O)C(F)(F)F)c4)cc3)CC2)C1 [Navitoclax] (partner 0.5 µM)
Summed up:
as §1

Compound in test [3]: CN1CCC(CNc2ccc3ncc(-c4cccc(OC(F)(F)F)c4)n3n2)CC1 [SGI-1776] + CC(=O)Nc1cccc(-n2c(=O)n(C3CC3)c(=O)c3c(Nc4ccc(I)cc4F)n(C)c(=O)c(C)c32)c1 [Trametinib] (partner 0.02 µM)
Summed up: as §1

Compound in test [4]: C1COCCN1C2=NC(=NC3=C2OC4=C3C=CC=N4)C5=CC(=CC=C5)NC(=O)C6=CN=C(C=C6)N + C[C@]1(O)C[C@@H](c2nc(-c3ccc4ccc(-c5ccccc5)nc4c3)c3c(N)nccn32)C1 [Linsitinib] (partner 1 µM)
Put shortly:
as §1

In the case of UMC-11, the relative viability was found to be 0.43 in test [1] (first compound 0.02 µM); 0.321 in test [1] (first compound 0.06325 µM); 0.242 in test [1] (first compound 0.2 µM); 0.181 in test [1] (first compound 0.6325 µM); 0.12 in test [1] (first compound 2 µM); 0.29 in test [2] (first compound 0.02 µM). Moreover, the relative viability was found to be 0.302 in test [2] (first compound 0.06325 µM); 0.25 in test [2] (first compound 0.2 µM); 0.117 in test [2] (first compound 0.6325 µM); 0.115 in test [2] (first compound 2 µM); 0.719 in test [3] (first compound 0.08 µM); 0.684 in test [3] (first compound 0.8 µM). Besides, the relative viability came to 0.787 in test [3] (first compound 2.53 µM); 0.432 in test [3] (first compound 8 µM); 0.966 in test [4] (first compound 0.02 µM); 1.04 in test [4] (first compound 0.06325 µM); 1.11 in test [4] (first compound 0.2 µM); 1.34 in test [4] (first compound 0.6325 µM). Further, the relative viability in test [4] (first compound 2 µM) was found to be 0.666.

(Values after the supplement of paper PMC10307832.)
